Laboratory results reported in PMC6225423, “Synthesis, Structural and Thermal Studies of 3-(1-Benzyl-1,2,3,6-tetrahydropyridin-4-yl)-5-ethoxy-1H-indole (D2AAK1_3) as Dopamine D2 Receptor Ligand” (Molecules : A Journal of Synthetic Chemistry and Natural …, 2018).

Target: T1, human dopamine D2 receptor (Homo sapiens, UniProt P14416)
T1 construct: gene DRD2; cloned human D2S receptor
Assay: [3H]spiperone competition radioligand binding, membranes of CHO-K1 cells stably expressing human D2S

T1 sequence (P14416 1-414 isoform P14416-2): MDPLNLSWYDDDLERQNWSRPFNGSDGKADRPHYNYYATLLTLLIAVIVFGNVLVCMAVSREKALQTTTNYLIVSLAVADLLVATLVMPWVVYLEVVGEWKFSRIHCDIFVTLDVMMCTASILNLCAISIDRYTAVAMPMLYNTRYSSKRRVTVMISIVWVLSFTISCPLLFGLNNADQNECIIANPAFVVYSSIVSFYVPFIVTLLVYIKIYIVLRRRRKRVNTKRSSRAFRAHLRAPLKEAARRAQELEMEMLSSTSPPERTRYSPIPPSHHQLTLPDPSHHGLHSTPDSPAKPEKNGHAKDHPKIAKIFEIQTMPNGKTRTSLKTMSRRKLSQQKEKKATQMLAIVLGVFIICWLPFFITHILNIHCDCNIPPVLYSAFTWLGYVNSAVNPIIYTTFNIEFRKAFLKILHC

SMILES: CCOc1ccc2[nH]cc(C3=CCN(Cc4ccccc4)CC3)c2c1 [D2AAK1_3, 3-(1-Benzyl-1,2,3,6-tetrahydropyridin-4-yl)-5-ethoxy-1H-indole]
- Ki: 151 nM
